From patent US8450090B2, “Compositions and methods for promoting fatty acid production in plants” (The Regents of the University of Colorado, a body corporate, priority 2009, dated 2013)

Legend:
[1] = test system: Schizochytrium; assay: Forward versus side scatter flow cytometry for oxamate-induced cell death; format: cell-based; conditions: at higher concentrations of oxamate, FIG. 3
Experimental: Schizochytrium or chlamydomonas were harvested, counted, and resuspended at 10^6 cells/100 μl of PBS containing 2.5% fetal calf serum in preparation for flow cytometric analysis. Lysosensor dyes were used to detect fatty acids in glyoxosomes or oil droplets. Mitochondrial membrane potential was assessed using Mitotracker Red (CM-H2XROS, BD Pharmingen). The cells were resuspended in PBS containing 2.5% fetal calf serum containing a final concentration of 0.5 micromolar Mitotracker dye. The cells were incubated at 37° for 20 minutes, washed twice in PBS containing 2.5% fetal calf serum and analyzed flow cytometrically. Data were acquired on a Coulter Excel flow cytometer (Coulter, Hialeah, Fla.) and analyzed with FloJo software. […] Each sample population was classified for cell size (forward scatter) and complexity (side scatter), gated on a population of interest and evaluated using 30,000 cells.
Percents: Gating is a tool provided by FloJo software and allows for the analysis of a certain population of cells. […] After the gates were drawn, a percent value of dead cells was calculated by taking the number of dead cells divided by the number of total cells and multiplying by one hundred.
The bar graph in FIG. 3 depicts the increase in geometric mean of fluorescence in the treated group minus the untreated. […]

[2] = test system: cell wall UCP; conditions: wild type strains of C. reinhardtii; prior studies, U.S. Pat. No. 7,105,718; cited from earlier work

## NC(=O)C(=O)O [Oxamate, oxamate]
[1]
  percentage of cell death: significantly increased percentage of cell death

## CNc1cnn(-c2cccc(C(F)(F)F)c2)c(=O)c1Cl [norflurazon]
[2]
  cell wall expression of UCP: did upregulate cell wall expression of UCP
